Assay type in all cases: cell-based
The subject of assay [1] is U937 cells (human monocytic cell line). As to the kind of experiment: Pam2CSK4-induced TNF-α secretion inhibition in PMA-differentiated U937 cells. Conditions: U-937, U937 cells differentiated with PMA, read-out: TNF-α production inhibition grade (IC50). In short, it runs like this: (§1)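 Inhibition is given as IC50 (μM) in A-D bands, using distinct thresholds for TNF-α and for IL-1β. Secretion followed Pam2CSK4 stimulation (TNF-α) or BzATP stimulation (IL-1β) of compound-pretreated, PMA-differentiated U937 macrophages.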

Assay [2] has the same test system. As to the kind of experiment: BzATP-induced IL-1β secretion inhibition in PMA-differentiated U937 cells. Conditions: U-937, U937 cells differentiated with PMA, read-out: IL-1β production inhibition grade (IC50). The method in brief: as §1
The subject of assay [3] is J774A.1 (Mouse BALB/c monocyte macrophage cell line) cells. The experiment in a line: LPS+ATP-induced IL-1β secretion inhibition in J774A.1 cells. Conditions: J774.A1, 1 μM compound, graded compared to taurodeoxycholic acid (positive control), read-out: IL-1β production inhibition grade. In short, it runs like this:
(§2)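 Grades (A >100%, B 50–100%, C 20–50%, D <20%) express cytokine suppression by 1 μM compound relative to taurodeoxycholic acid. LPS-induced TNF-α and LPS+ATP-induced IL-1β secretion were measured in murine J774A.1 macrophage cells.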

For assay [4] the test system is unchanged. The experiment in a line: LPS-induced TNF-α secretion inhibition in J774A.1 cells. Conditions: J774.A1, 1 μM compound, graded compared to taurodeoxycholic acid (positive control), read-out: TNF-α production inhibition grade. The method in brief:
as §2

As a reminder, the IC50 is the point on the concentration scale where inhibition reaches its midpoint. By inhibition is commonly meant the share of the control response that was lost under treatment.

Regarding `CC(C)[C@H](CS(=O)(=O)O)NC(=O)CC[C@@H](C)[C@H]1CC[C@H]2[C@@H]3CC[C@@H]4C[C@H](O)CC[C@]4(C)[C@H]3CC[C@]12C` [NC10073], the IC50 is less than 500 nM in assay [1] and 50 to 100 nM in assay [2]. Also, the inhibition at 1 µM in assay [3] was 50 to 100%; in assay [4], less than 20%.

Take `C[C@H](CCC(=O)N[C@H](CS(=O)(=O)O)c1ccccc1)[C@H]1CC[C@H]2[C@@H]3CC[C@@H]4C[C@H](O)CC[C@]4(C)[C@H]3CC[C@]12C` [NC10074]: the IC50 in assay [1] was less than 500 nM; in assay [2] it was 50 to 100 nM. Further, the inhibition at 1 µM was greater than 100% in assay [3] and less than 20% in assay [4].

Regarding `C[C@H](CCC(=O)N1CCC[C@@H]1CS(=O)(=O)O)[C@H]1CC[C@H]2[C@@H]3CC[C@@H]4C[C@H](O)CC[C@]4(C)[C@H]3CC[C@]12C` [NC10076], the figures for the half-maximal inhibitory concentration (IC50) in assay [1] and in assay [2] were no less than 2000 nM and 50 to 100 nM, respectively. The inhibition at 1 µM is greater than 100% in assay [3] and less than 20% in assay [4].

Turning to `C[C@H](CCC(=O)N1CCC[C@H]1CS(=O)(=O)O)[C@H]1CC[C@H]2[C@@H]3CC[C@@H]4C[C@H](O)CC[C@]4(C)[C@H]3CC[C@]12C` [NC10077], the IC50 was less than 500 nM in assay [1] and less than 50 nM in assay [2]. The results for the inhibition at 1 µM in assay [3] and in assay [4] were greater than 100% and less than 20%, respectively.

On to `C[C@H](CCC(=O)NC[C@H](C)S(=O)(=O)O)[C@H]1CC[C@H]2[C@@H]3CC[C@@H]4C[C@H](O)CC[C@]4(C)[C@H]3CC[C@]12C` [NC10078], for which the IC50 in assay [1] is less than 500 nM; in assay [2] it was less than 50 nM. For the same compound, the inhibition at 1 µM in assay [3] is greater than 100%; in assay [4] it was less than 20%.

Consider `C[C@H](CCC(=O)NC[C@@H](C)S(=O)(=O)O)[C@H]1CC[C@H]2[C@@H]3CC[C@@H]4C[C@H](O)CC[C@]4(C)[C@H]3CC[C@]12C` [NC10079], for which the IC50 in assay [1] is 500 to 1000 nM; in assay [2], less than 50 nM. Moreover, the values for the inhibition at 1 µM in assay [3] and in assay [4] were greater than 100% and 20 to 50%, respectively.

Turning to `C[C@H](CCC(=O)N[C@@H](CO)CS(=O)(=O)O)[C@H]1CC[C@H]2[C@@H]3CC[C@@H]4C[C@H](O)CC[C@]4(C)[C@H]3CC[C@]12C` [NC10080], the half-maximal inhibitory concentration (IC50) lay in the range of 500 to 1000 nM in assay [1] and 100 to 200 nM in assay [2]. For the same compound, the values for the inhibition at 1 µM in assay [3] and in assay [4] were greater than 100% and less than 20%, respectively.

As for `C[C@H](CCC(=O)N[C@H](CO)CS(=O)(=O)O)[C@H]1CC[C@H]2[C@@H]3CC[C@@H]4C[C@H](O)CC[C@]4(C)[C@H]3CC[C@]12C` [NC10081], the IC50 was 500 to 1000 nM in assay [1] and less than 50 nM in assay [2]. Besides, the inhibition at 1 µM in assay [3] and in assay [4] was greater than 100% throughout.

As for `C[C@H](CCC(=O)N[C@@H]1CCCC[C@@H]1S(=O)(=O)O)[C@H]1CC[C@H]2[C@@H]3CC[C@@H]4C[C@H](O)CC[C@]4(C)[C@H]3CC[C@]12C` [NC10082], the IC50 is less than 500 nM in assay [1] and less than 50 nM in assay [2]. The inhibition at 1 µM in assay [3] and in assay [4] was greater than 100% in each case.

As to `C[C@H](CCC(=O)N[C@H]1CCCC[C@H]1S(=O)(=O)O)[C@H]1CC[C@H]2[C@@H]3CC[C@@H]4C[C@H](O)CC[C@]4(C)[C@H]3CC[C@]12C` [NC10083], the IC50 was 500 to 1000 nM in assay [1] and less than 50 nM in assay [2]. Moreover, the inhibition at 1 µM in assay [3] and in assay [4] was greater than 100% throughout.

With `C[C@H](CCC(=O)N[C@@H](C)CS(=O)(=O)O)[C@H]1CC[C@H]2[C@@H]3CC[C@@H]4C[C@H](O)CC[C@]4(C)[C@H]3CC[C@]12C` [NC10084], the concentration for half-maximal inhibition (IC50) is less than 500 nM in assay [1] and no less than 200 nM in assay [2]. In addition, the inhibition at 1 µM in assay [3] and in assay [4] was less than 20% in each case.

The values above are taken from patent publication US20240391948A1, “NOVEL COMPOUND THAT INHIBITS TNF-ALPHA GENERATION AND INFLAMMASOME ACTIVITY AND PREPARATION METHOD THEREFOR” (SHAPERON INC., priority 2021, published 2024).
